Here are results for 3 compounds from patent US7345070B2, “Peroxisome proliferator activated receptor agonists” (Eli Lilly and Company, priority 2000, dated 2008).

SMILES strings stand for the structures.

The target in assay [1] is T1, huPPARα (Homo sapiens, UniProt Q07869).
T1 sequence (Q07869 1-468): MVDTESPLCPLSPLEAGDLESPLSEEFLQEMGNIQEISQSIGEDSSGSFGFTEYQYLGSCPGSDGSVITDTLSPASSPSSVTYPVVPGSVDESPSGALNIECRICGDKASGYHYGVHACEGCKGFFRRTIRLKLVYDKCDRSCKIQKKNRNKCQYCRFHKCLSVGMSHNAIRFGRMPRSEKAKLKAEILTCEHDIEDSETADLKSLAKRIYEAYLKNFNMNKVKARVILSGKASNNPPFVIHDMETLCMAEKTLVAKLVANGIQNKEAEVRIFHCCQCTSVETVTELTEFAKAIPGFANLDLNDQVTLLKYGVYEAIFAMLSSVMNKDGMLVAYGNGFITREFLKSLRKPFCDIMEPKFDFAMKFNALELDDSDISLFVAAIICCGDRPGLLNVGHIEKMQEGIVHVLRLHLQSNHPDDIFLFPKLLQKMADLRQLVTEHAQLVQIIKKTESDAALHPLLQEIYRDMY
T1 sequence (P19793 1-462 partner): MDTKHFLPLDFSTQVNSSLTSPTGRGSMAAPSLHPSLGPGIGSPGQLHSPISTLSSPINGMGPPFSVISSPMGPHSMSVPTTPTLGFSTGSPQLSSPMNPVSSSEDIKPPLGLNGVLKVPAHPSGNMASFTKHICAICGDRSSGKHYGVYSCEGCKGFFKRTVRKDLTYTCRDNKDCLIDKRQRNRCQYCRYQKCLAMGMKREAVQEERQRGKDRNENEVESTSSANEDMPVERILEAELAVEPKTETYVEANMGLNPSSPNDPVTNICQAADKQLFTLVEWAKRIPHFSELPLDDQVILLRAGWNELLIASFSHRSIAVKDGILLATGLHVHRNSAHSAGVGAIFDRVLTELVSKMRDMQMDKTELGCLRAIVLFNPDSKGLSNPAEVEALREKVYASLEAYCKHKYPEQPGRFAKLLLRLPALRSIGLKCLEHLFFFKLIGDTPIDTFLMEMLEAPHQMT
The experiment in a line: DNA-dependent binding (ABCD binding) using SPA technology, huPPARα. Particulars: SPA displacement of tritium-labeled PPARα agonist radioligand. As for the experimental part: (§1) DNA-dependent binding (ABCD binding) was carried out using SPA technology with PPAR receptors. Tritium-labeled PPARα and PPARγ agonists were used as radioligands for generating displacement curves and IC50 values with compounds of the invention. Cotransfection assays were carried out in CV-1 cells. The reporter plasmid contained an acylCoA oxidase (AOX) PPRE and TK promoter upstream of the luciferase reporter cDNA. Appropriate PPARs and RXRα were constitutively expressed using plasmids containing the CMV promoter. […] In order to eliminate such interference, a GAL4 chimeric system was used in which the DNA binding domain of the transfected PPAR was replaced by that of GAL4, and the GAL4 response element was utilized in place of the AOX PPRE. Cotransfection efficacy was determined relative to PPARα agonist and PPARγ agonist reference molecules. Efficacies were determined by computer fit to a concentration-response curve, or in some cases at a single high concentration of agonist (10 μM). For binding or cotransfection studies with receptors other than PPARs, similar assays were carried out using appropriate ligands, receptors, reporter constructs, etc., for that particular receptor.
(§2) These studies were carried out to evaluate the ability of compounds of the invention to bind to and/or activate various nuclear transcription factors, particularly huPPARα (“hu” indicates “human”) and huPPARγ. These studies provide in vitro data concerning efficacy and selectivity of compounds of the invention. Furthermore, binding and cotransfection data for compounds of the invention were compared with corresponding data for marketed compounds that act on either huPPARα or huPPARγ.

The target in assay [2] is T2, huPPARγ (Homo sapiens, UniProt P37231).
T2 sequence (P37231 1-505): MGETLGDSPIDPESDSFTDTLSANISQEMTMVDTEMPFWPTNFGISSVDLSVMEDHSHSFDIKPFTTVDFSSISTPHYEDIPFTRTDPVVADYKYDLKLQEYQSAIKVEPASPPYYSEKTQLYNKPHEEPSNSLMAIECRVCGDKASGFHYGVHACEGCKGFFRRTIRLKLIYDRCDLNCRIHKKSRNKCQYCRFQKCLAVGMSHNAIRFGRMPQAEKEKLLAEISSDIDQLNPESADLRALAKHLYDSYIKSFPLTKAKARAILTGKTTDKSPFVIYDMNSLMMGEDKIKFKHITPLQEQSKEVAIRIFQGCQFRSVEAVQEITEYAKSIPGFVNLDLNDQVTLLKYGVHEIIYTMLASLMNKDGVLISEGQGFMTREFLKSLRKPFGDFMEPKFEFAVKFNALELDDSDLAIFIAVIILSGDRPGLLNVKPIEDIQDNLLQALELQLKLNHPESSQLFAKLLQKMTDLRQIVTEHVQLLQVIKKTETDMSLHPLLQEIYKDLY
T2 sequence (P19793 1-462 partner): T1 sequence (P19793 1-462 partner)
The experiment in a line: DNA-dependent binding (ABCD binding) using SPA technology, huPPARγ. Particulars: SPA displacement of tritium-labeled PPARγ agonist radioligand. As for the experimental part:
as §1, §2

Assay [3] has as its system huPPARα. The experiment in a line: Cotransfection assay in CV-1 cells, huPPARα. It is filed as cell-based, human. Particulars: GAL4 chimeric system, relative to PPARα agonist reference molecule. As for the experimental part:
as §1, §2

Assay [4] deals with HuapoAI transgenic mice. The experiment in a line: Evaluation of triglyceride and cholesterol level in HuapoAI transgenic mice. In kind it is in vivo. Particulars: Mus musculus, 168 h; human apoAI transgenic mice, 30 mg/kg oral gavage daily for 7 days, FPLC area under the curve, over mice receiving vehicle; read-out: % HDLc Increase. As for the experimental part: After an acclimation period of 2 weeks, animals were individually identified by ear notches, weighed, and assigned to groups based on body weight. Beginning the following morning, mice were dosed daily by oral gavage for 7 days using a 20 gauge, 1½″ curved disposable feeding needle (Popper & Sons). […] Prior to termination on day 7, mice were weighed and dosed. Three hours after dosing, animals were anesthetized by inhalation of isoflurane (2-4%; Abbott Laboratories, Chicago, Ill.) and blood obtained via cardiac puncture (0.7-1.0 ml). Whole blood was transferred to serum separator tubes (Vacutainer SST), chilled on ice, and permitted to clot. Serum was obtained after centrifugation at 4° C. and frozen until analysis for triglycerides, total cholesterol, compound levels, and serum lipoprotein profile by fast protein liquid chromatography (FPLC) coupled to an inline detection system. After sacrifice by cervical dislocation, the liver, heart and epididymal fat pads were excised and weighed.
The absorbance of the dye produced is linearly related to the analyte in the sample. The assays were further modified in our laboratory for use in a 96 well format. […] An additional aliquot of sample, pipetted to a third well and diluted in 200 μl water, provided a blank for each specimen. […] Sample absorbances were compared to a standard curve (100-800, 10-500, and 100-400 mg/dl for glucose, triglycerides and total cholesterol, respectively). […] All samples from an experiment were assayed at the same time to minimize inter-assay variability.
Serum lipoproteins were separated and cholesterol quantitated with an in-line detection system. Sample was applied to a Superose® 6 HR 10/30 size exclusion column (Amersham Pharmacia Biotech) and eluted with phosphate buffered saline-EDTA at 0.5 ml/min. […] The change in voltage corresponding to change in cholesterol concentration was plotted vs time and the area under the curve corresponding to the elution of VLDL, LDL and HDL was calculated using Perkin Elmer Turbochrome software.

Assay [5] addresses T2, huPPARγ. The experiment in a line: Cotransfection assay in CV-1 cells, huPPARγ. In kind it is cell-based. Details: Appropriate PPARs and RXRα were constitutively expressed using plasmids containing the CMV promoter; expressed in transfected cells; host or cells: CV-1 cells. Particulars: AOX PPRE luciferase reporter, relative to PPARγ agonist reference molecule; for Emax: read-out: huPPARγ CTF Efficacy. The method, then: as §1, §2
(Reporter assays use an easily measured gene product as a stand-in for the process of interest.)

As to `Cc1oc(C2CCCCC2)nc1CCOc1ccc(CC(C)(Oc2ccc(Cl)cc2)C(=O)O)cc1` (stereo not drawn) [Example 31, 2-(4-Chlorophenoxy)-3-{4-[2-(2-cyclohexyl-5-methyl-oxazol-4-yl)-ethoxy]-phenyl}-2-methyl-propionic acid], the IC50 (commonly the concentration at which inhibition is half-maximal) was found to be 53 nM in assay [1] and 19 nM in assay [2]. In addition, the “huPPARα CTF Efficacy” value in assay [3] was 63%. The change in vivo at 30 mg/kg in assay [4] is 114%. The Emax in assay [5] worked out at 73%.

As for `CC(C)(Oc1ccc(C(=O)c2ccc(Cl)cc2)cc1)C(=O)O` [Fenofibric acid, reference compound], in assay [3], the “huPPARα CTF Efficacy” value is on record as 16%. Moreover, in assay [5], the “huPPARγ CTF Efficacy” value is on record as 0%.

On to `CCC(Cc1ccc(OCCc2nc(C3(C)CCCCC3)oc2C)cc1)(Oc1ccccc1)C(=O)O` (stereo not drawn) [Example 49, 2-(4-{2-[5-Methyl-2-(1-methyl-cyclohexyl)-oxazol-4-yl]-ethoxy}-benzyl)-2-phenoxy-butyric acid], for which the IC50 in assay [1] was found to be 175 nM; in assay [2] it was 655 nM. Further, the “huPPARα CTF Efficacy” value in assay [3] is given as 63%. Also, the change in vivo at 30 mg/kg in assay [4] turned out to be 17%. The Emax in assay [5] turned out to be 58%.
